Data: patent publication US12685709B2, “Solid solution compositions and use in chronic inflammation” (Infirst Healthcare Limited, priority 2011, dated 2026)
Where “and” joins values, the source holds several entries; their conditions need not be identical. Identical values can stand only once.

Experiments:
[1] = test system: U937 monocyte cell line differentiated into macrophages; conditions: % therapeutic compound taken up by macrophages after 45 minutes incubation, HPLC; N=2
Method: Cultures of U937 monocyte cell line were grown in RPMI-1640 supplemented with 10% fetal calf serum (FCS) until the cells reached 90% confluent monolayer. These cells were then treated with PMA and incubated in a 37° C. incubator under 5% carbon dioxide until the cells differentiated into macrophages. […] After incubation for 45 minutes the test solution supernatants were removed and saved for analysis, and the cells were then washed in PBS several times and lysed using two cycles of freeze-thawing. Therapeutic compound concentration present in the test solution, test solution supernatant, and cell lyste fractions was measured by HPLC. The percentage therapeutic compound taken up by the macrophages was calculated using the following formula: % therapeutic compound adsorbed=100×(compound mass recovered from cell lysate)/(compound mass delivered in test solution−compound mass recovered from test solution supernatant).

[2] = test system: TBS-induced colitis murine model; test: Animal model for inflammatory bowel disease (TNBS-induced colitis); assay type: in vivo, C57BI/6 male mice; conditions: for Mean Colon Length / Mean Colon Weight / Mean Animal Weight: TNBS colitis; for Mean Colon Length / Mean Colon Weight / Endoscopy Colitis Severity Score Day 5: day 5; for Mean Animal Weight: oral dosing day -1 to day 5, Prednisolone 3 mg/kg, ibuprofen 20 mg/kg, BC1054-20 20 mg/kg, BC1054-30 30 mg/kg; for Endoscopy Colitis Severity Score Day 3 / Endoscopy Colitis Severity Score Day 5: video endoscopy, scale 0 to 4
Method: To assess the effectiveness of a pharmaceutical composition disclosed herein in treating an inflammatory bowel disease, experiments were conducted using a […] colitis murine model.
C57BI/6 male mice (6-7 weeks old) were divided into seven experimental groups containing at least ten animals each. On day 0, colitis was induced in mice from Groups B-G by intrarectal administration of 100 μL of TNBS (4 mg) in 50% ethanol under isoflurane anesthesia. Animals were dosed either once or three times a day from day −1 to day 5 with one of seven different treatments. Group A was a control in which each mouse was orally administered ethanol vehicle only. Group B was a control in which each mouse was orally administered 1% methylcellulose vehicle only. Group C was a control in which each mouse was orally administered solvent/adjuvant vehicle only (gavage of 10% ethanol and 90% linseed oil). Group D was a control in which each mouse was orally administered 3 mg/kg of Prednisolone. Group E was a control in which each mouse was orally administered 20 mg/kg of ibuprofen suspended in 1% methylcellulose (1 ml/kg) (no adjuvant). Group F was the experimental group in which each mouse was administered a pharmaceutical composition disclosed herein (BC1054-20) comprising 20 mg/kg of ibuprofen, 10% ethanol, and 90% linseed oil. Group G was the experimental group in which each mouse was administered a pharmaceutical composition disclosed herein (BC1054-30) comprising 30 mg/kg of ibuprofen, 10% ethanol, and 90% linseed oil. All animals were weighed daily and assessed visually for the presence of diarrhea and/or bloody stool. On day 3 and on day 5 colitis severity was assessed in all animals using video endoscopy, where images were taken and colitis severity scored visually by a blinded observer on a scale from 0 to 4 as follows: 0, normal; 1, loss of vascularity; 2, loss of vascularity and friability; 3, friability and erosions; and 4, ulcerations and bleeding. Following endoscopy on day 5, animals were sacrificed and the colon removed and its length and weight measured. Serum samples were obtained and the colon was fixed in 10% formalin. An additional piece of colon tissue was collected, weighed, and snap frozen in liquid nitrogen.

[3] = test system: intestinal erosion murine model; test: Animal model for intestinal erosion (gastric irritation score); assay type: in vivo, Sprague-Dawley rats; conditions: for Mean Ulceration Score: 4 hours after treatment, score 0-4
Method: To assess whether a pharmaceutical composition disclosed herein reduced gastric irritation, experiments were conducted using an intestinal erosion murine model.
Sprague-Dawley rats were divided into seven experimental groups containing five animals each. After fasting overnight, the animals were challenged with one with one of seven different treatments. Group A was a control in which each mouse was orally administered 1% methylcellulose/0.5% polysorbate 80 vehicle only. Group B was a control in which each mouse was orally administered solvent/adjuvant vehicle only (gavage of 10% ethanol and 90% linseed oil). Group C was a control in which each mouse was orally administered 150 mg/kg aspirin. Group D was a control in which each mouse was orally administered 100 mg/kg ibuprofen suspended in 1% methylcellulose/0.5% polysorbate 80. Group E was the experimental group in which each mouse was administered a pharmaceutical composition disclosed herein (BC1054-100) comprising 100 mg/kg of ibuprofen, 10% ethanol, and 90% linseed oil. Group F was a control in which each mouse was orally administered 100 mg/kg ibuprofen suspended in 1% methylcellulose/0.5% polysorbate 80. Group G was the experimental group in which each mouse was administered a pharmaceutical composition disclosed herein (BC1054-200) comprising 200 mg/kg of ibuprofen, 10% ethanol, and 90% linseed oil. Animals were sacrificed 4 hours after treatment and the stomachs were examined for degree of hemorrhage and severity of mucosal erosive lesions. Gastric irritation was scored as follows: 0, no lesions; 1, hyperemia; 2, one or two slight lesions; 3, more than two slight lesions or severe lesions; and 4, very severe lesions. A score of 50% or more relative to Group C (aspirin-treated control group), which was set to 100%, was considered a positive score for gastric irritation.

[4] = test system: α-collagen antibody induced arthritis (ACAIA) murine model; test: Alpha-collagen antibody induced arthritis (ACAIA) model for systemic arthritis; assay type: in vivo, Male BALB/c mice; conditions: for mean paw thickness compared to vehicle-treated Group 1M (significance): ANOVA with Tukey post hoc
Method: To assess the effectiveness of a pharmaceutical composition disclosed herein in treating arthritis, experiments were conducted using an α-collagen antibody induced arthritis (ACAIA) murine model that mimics a systemic arthritis like rheumatoid arthritis.
Male BALB/c mice were divided into eight groups, each containing 10 animals. To induce arthritic symptoms, mice from all eight groups were intravenously injected with 200 μL of an antibody solution comprising a 2 mg cocktail of four α-collagen II monoclonal antibodies (ARTHRITOMAB™, MD Biosciences) on study day 0 (study commencement), followed by a 200 μL intraperitoneal injection of a solution containing 100 μg lipopolysaccharide (LPS) on study day 3. Each group was subjected daily to a control or test treatment administered from day 0-11 as follows: Group 1 mice (1M) were treated orally with a vehicle preparation containing 1% methyl cellulose administered thrice daily; Group 2 mice (2M) were treated intraperitoneally with a positive control preparation containing 10 mg/kg etanercept (ENBREL®, Wyeth) administered once daily; Group 3 mice (3M) were treated orally with a 20 mg/kg test liquid formulation comprising ibuprofen and rapeseed oil (BC1054 LF-RO) administered once daily; Group 4 mice (4M) were treated orally with a 20 mg/kg test liquid formulation comprising ibuprofen and rapeseed oil (BC1054 LF-RO) administered thrice daily; Group 5 mice (5M) were treated orally with a 20 mg/kg test liquid formulation comprising ibuprofen and a glyceryl monolinoleate (MAISINE™ 35-1, Gattefosse) (BC1054 LF-MA) administered thrice daily; Group 6 mice (6M) were treated orally with a 20 mg/kg test solid formulation comprising ibuprofen and theobroma oil (BC1054 LF-TO) administered thrice daily; Group 7 mice (7M) were treated orally with a control preparation 1 comprising 20 mg/kg of ibuprofen administered thrice daily; and Group 8 mice (8M) were treated orally with a 20 mg/kg test solid formulation comprising ibuprofen and a waxy solid having a melting point of between 37° C. to 41° C. and comprising a mixture of saturated C10-C18 triglycerides ([…]® 39/01, Gattefosse) (BC1054 LF-GE) administered thrice daily (Table 6). The dose administered was calculated based on the assumption that each animal weighed, on average, 20 g. A fixed volume of 100 μL was administered to each mouse, except those animals receiving the positive control (2M) were administered 200 μL.
Arthritic development and clinical examinations were monitored in all mice on study day 0 shortly before arthritis induction and subsequently on study days 3-7, 9, 10 and 12 (study termination). To access arthritic development, both an arthritis score and paw thickness (plethysmography) measurements were obtained. The arthritis score was based on visual assessment of arthritis reactions using a 0-4 scale in ascending order of severity with Grade 0 indicating no arthritis reaction; Grade 1 indicating mild, but definite redness and swelling of the ankle/wrist or apparent redness and swelling limited to individual digits, regardless of the number of affected digits; Grade 2 indicating moderate to severe redness and swelling of the ankle/wrist; Grade 3 indicating redness and swelling of the entire paw including digits; and Grade 4 indicating maximally inflamed limb with involvement of multiple joints. Paw thickness was measured for both hind paws just above the foot pad and below the calcaneum using a dial caliper (Kroeplin, Munich, Germany). Mean values for paw thickness measurements were determined, and where appropriate, analysis of the data by ANOVA with Tukey post hoc analysis was applied to determine significance of treatment effects.
Clinical examinations included changes in body weight, condition of skin, fur, eyes, mucous membranes, occurrence of secretions and excretions (e.g. diarrhea), and autonomic activity (e.g. lacrimation, salivation, piloerection, pupil size, unusual respiratory pattern). […]

[5] = statistical comparison, doses as E9
[6] = day 6, 20 mg/kg PO thrice daily (Groups 4M-8M)

In the case of `CC(C)Cc1ccc(C(C)C(=O)O)cc1` (stereo not drawn) [Formulation C, ibuprofen free acid], the “Mean Mass Compound Uptake” value [1] is reported as 0.4%.
With `C[C@]12C=CC(=O)C=C1CC[C@@H]1[C@@H]2[C@@H](O)C[C@@]2(C)[C@H]1CC[C@]2(O)C(=O)CO` [Prednisolone] the Mean Colon Length ([2]; doses as E9) was 8.4 cm, the “Mean Colon Weight” value ([2]; doses as E9) was 267 mg and the “Mean Animal Weight” value [2] was 23.33 g. The “mean colitis scores compared to Group B (TNBS-treated control group)” value [2, 5] was “statistically significant reduced mean colitis scores on both day 3 and day 5”, the “mean colon length compared to Group B (TNBS-treated control group)” value [2, 5] was “statistically significant increase in mean colon length” and the “Endoscopy Colitis Severity Score Day 3” value ([2]; doses as E9) was 2.3^7. The “Endoscopy Colitis Severity Score Day 5” value ([2]; doses as E9) was 1.7^8.
In the case of `CC(=O)Oc1ccccc1C(=O)O` [aspirin], the “% Aspirin Erosion” value ([3]; Group C, 150 mg/kg aspirin, set to 100%) is reported as “(100) %” and the “Mean Ulceration Score” value ([3]; Group C, 150 mg/kg oral) is reported as 4.
For `CC(C)Cc1ccc(C(C)C(=O)O)cc1` (stereo not drawn) [ibuprofen], the “% Aspirin Erosion” value ([3]; 100 mg/kg ibuprofen (Groups D, E), relative to Group C, 50% or more = positive score for gastric irritation) was 75% and 75^1%, the “Mean Ulceration Score” value ([3]; 100 mg/kg ibuprofen oral (Groups D, E)) was 3 and the “% Aspirin Erosion” value ([3]; 200 mg/kg ibuprofen (Groups F, G), relative to Group C, 50% or more = positive score for gastric irritation) was 95% and 95^1%. The “Mean Ulceration Score” value ([3]; 200 mg/kg ibuprofen oral (Groups F, G)) was 3.8, the “Mean Colon Length” value ([2]; doses as E9) was 7.9 cm and the “Mean Colon Weight” value ([2]; doses as E9) was 267 mg. For the same compound, the “Mean Animal Weight” value [2] was 23.82 g, the “Endoscopy Colitis Severity Score Day 3” value ([2]; doses as E9) was 2.7 and the “Endoscopy Colitis Severity Score Day 5” value ([2]; doses as E9) was 2.2. For the same compound, the “mean paw thickness compared to vehicle-treated Group 1M (significance)” value ([4]; 20 mg/kg PO thrice daily (Groups 4M-8M)) was “No significant differences were observed”, the “Mean Rear Paw Thickness” value ([4]; day 0, 20 mg/kg PO thrice daily (Groups 4M-8M), 20 mg/kg) was 1.71±0.02 mm and 1.71 mm and the “Mean Rear Paw Thickness” value ([4]; day 3, 20 mg/kg PO thrice daily (Groups 4M-8M)) was 1.72 mm. The “Mean Rear Paw Thickness” value ([4]; day 4, 20 mg/kg PO thrice daily (Groups 4M-8M)) was 1.64 mm, the “Mean Rear Paw Thickness” value ([4]; day 5, 20 mg/kg PO thrice daily (Groups 4M-8M)) was 1.71 mm and the Arthritis incidence [4, 6] was 8/10. For the same compound, the “Mean Rear Paw Thickness” value [4, 6] was 1.90 mm, the “Mean Rear Paw Thickness” value ([4]; day 7, 20 mg/kg PO thrice daily (Groups 4M-8M), 20 mg/kg) was 2.15±0.10 mm and 2.15 mm and the “Mean Rear Paw Thickness” value ([4]; day 9, 20 mg/kg PO thrice daily (Groups 4M-8M)) was 2.08 mm. For the same compound, the “Mean Rear Paw Thickness” value ([4]; day 10, 20 mg/kg PO thrice daily (Groups 4M-8M)) was 2.07 mm and the “Mean Rear Paw Thickness” value ([4]; day 12, 20 mg/kg PO thrice daily (Groups 4M-8M), 20 mg/kg) was 2.02±0.08 mm and 2.02 mm.
For Etanercept, the “mean paw thickness compared to vehicle-treated Group 1M (significance)” value ([4]; once daily dosing (Groups 2M, 3M)) was “significantly decreased paw volume compared to the positive control mice on days 9, 10 and 12”, the “Mean Rear Paw Thickness” value ([4]; day 0, once daily (Etanercept 10 mg/kg IP, Group 2M; BC1054 LF-RO 20 mg/kg PO, Group 3M)) was 1.70±0.02 mm and 1.70 mm and the “Mean Rear Paw Thickness” value ([4]; day 3, once daily (Etanercept 10 mg/kg IP, Group 2M; BC1054 LF-RO 20 mg/kg PO, Group 3M)) was 1.73 mm. The “Mean Rear Paw Thickness” value ([4]; day 4, once daily (Etanercept 10 mg/kg IP, Group 2M; BC1054 LF-RO 20 mg/kg PO, Group 3M)) was 1.64 mm, the “Mean Rear Paw Thickness” value ([4]; day 5, once daily (Etanercept 10 mg/kg IP, Group 2M; BC1054 LF-RO 20 mg/kg PO, Group 3M)) was 1.63 mm and the “Mean Rear Paw Thickness” value ([4]; day 6, once daily (Etanercept 10 mg/kg IP, Group 2M; BC1054 LF-RO 20 mg/kg PO, Group 3M)) was 1.96±0.05 mm and 1.96 mm. For the same compound, the Arthritis incidence ([4]; day 6, once daily dosing (Groups 2M, 3M)) was 9/10, the “Mean Rear Paw Thickness” value ([4]; day 7, once daily (Etanercept 10 mg/kg IP, Group 2M; BC1054 LF-RO 20 mg/kg PO, Group 3M)) was 1.95 mm and the “Mean Rear Paw Thickness” value ([4]; day 9, once daily (Etanercept 10 mg/kg IP, Group 2M; BC1054 LF-RO 20 mg/kg PO, Group 3M)) was 1.88 mm. For the same compound, the “Mean Rear Paw Thickness” value ([4]; day 10, once daily (Etanercept 10 mg/kg IP, Group 2M; BC1054 LF-RO 20 mg/kg PO, Group 3M)) was 1.80 mm, the “Mean Rear Paw Thickness” value ([4]; day 12, once daily (Etanercept 10 mg/kg IP, Group 2M; BC1054 LF-RO 20 mg/kg PO, Group 3M)) was 1.77±0.02 mm and 1.77 mm and the Arthritis incidence ([4]; day 12, once daily dosing (Groups 2M, 3M)) was 1/10.
